Laboratory results published in patent publication US11554171B2, “Compounds and methods for the targeted degradation of bromodomain-containing proteins” (Arvinas Operations, Inc., priority 2015, dated 2023).

System: c-myc in 22RV-1 cells
Test: Human c-myc ELISA assay
Assay type: cell-based
Details: Homo sapiens; for Emax: 22Rv1, 18 h, read-out: Degradation of BRD4: Maximum inhibition (%) c-Myc ELISA in 22RV1 cells; for DC50: 22Rv1, read-out: Degradation of BRD4: DC50 (uM) c-Myc ELISA in 22RV1 cells
Method in brief: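 c-myc levels measured by ELISA in RIPA lysates of 22RV-1 cells, calibrated with a 333-0 pg/ml standard curve. Lysates came from cells exposed for 18 h to an 8-point, 1:3 dose series starting at 300 nM or 1 μM final in 0.1% DMSO. Suppression potency given as DC50.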

Compound | Emax | DC50
Cc1ncsc1-c1ccc(CNC(=O)[C@@H]2C[C@@H](O)CN2C(=O)[C@@H](NC(=O)COCCCOc2ccc(-c3ccc(NC(=O)C[C@@H]4N=C(c5ccc(Cl)cc5)c5c(sc(C)c5C)-n5c(C)nnc54)cn3)cc2F)C(C)(C)C)cc1 [Example 23] | 91% | 0.01 to 0.1 µM
Cc1ncsc1-c1ccc([C@H](C)NC(=O)[C@@H]2C[C@@H](O)CN2C(=O)[C@@H](NC(=O)COc2ccc(N3CC[C@H](NC(=O)C[C@@H]4N=C(c5ccc(Cl)cc5)c5c(sc(C)c5C)-n5c(C)nnc54)C3)nc2)C(C)(C)C)cc1 [Example 236] | 88.9% | 0.01 to 0.1 µM
Cc1sc2c(c1C)C(c1ccc(Cl)cc1)=N[C@@H](CC(=O)NCCOCCCOCC(=O)N[C@H](C(=O)N1C[C@H](O)C[C@H]1C(=O)NCc1ccc(C#N)cc1)C(C)(C)C)c1nnc(C)n1-2 [Example 75] | 58.5% | 0.1 to 1 µM
Cc1ncsc1-c1ccc(CNC(=O)[C@@H]2C[C@@H](O)CN2C(=O)[C@@H](NC(=O)COCCCOCCCOc2ccc(C3(NC(=O)C[C@@H]4N=C(c5ccc(Cl)cc5)c5c(sc(C)c5C)-n5c(C)nnc54)CC3)cc2)C(C)(C)C)cc1 [Example 27, (2S,4R)-1-[(2S)-2-[2-(3-{3-[4-(1-{2-[(9S)-7-(4-chlorophenyl)-4,5,13-trimethyl-3-thia-1,8,11,12-tetraazatricyclo[8.3.0.0^2,^6]trideca-2(6),4,7,10,12-pentaen-9-yl]acetamido}cyclopropyl)phenoxy]propoxy}propoxy)acetamido]-3,3-dimethylbutanoyl]-4-hydroxy-N-{[4-(4-methyl-1,3-thiazol-5-yl)phenyl]methyl}pyrrolidine-2-carboxamide] | 100% | 0.01 to 0.1 µM
Cc1ncsc1-c1ccc([C@H](C)NC(=O)[C@@H]2C[C@@H](O)CN2C(=O)[C@@H](NC(=O)CN2CCC(O[C@H]3C[C@H](NC(=O)C[C@@H]4N=C(c5ccc(Cl)cc5)c5ccccc5-c5c(C)noc54)C3)CC2)C(C)(C)C)cc1 [Example 350, (2S,4R)-1-[(2S)-3,3-dimethyl-2-(2-{4-[(1,3-trans)-3-{2-[(7S)-9-(4-chlorophenyl)-3-methyl-5-oxa-4,8-diazatricyclo[8.4.0.0^2,^6]tetradeca-1(10),2(6),3,8,11,13-hexaen-7-yl]acetamido}cyclobutoxy]piperidin-1-yl}acetamido)butanoyl]-4-hydroxy-N-[(1S)-1-[4-(4-methyl-1,3-thiazol-5-yl)phenyl]ethyl]pyrrolidine-2-carboxamide] | 100% | < 0.01 µM
Cc1ncsc1-c1ccc([C@H](C)NC(=O)[C@@H]2C[C@@H](O)CN2C(=O)[C@@H](NC(=O)/C=C/c2cccc(OCCNC(=O)C[C@@H]3N=C(c4ccc(Cl)cc4)c4c(sc(C)c4C)-n4c(C)nnc43)c2)C(C)(C)C)cc1 [Example 122] | 100% | < 0.01 µM
Cc1ncsc1-c1ccc([C@H](C)NC(=O)[C@@H]2C[C@@H](O)CN2C(=O)C(C(C)C)n2cc(-c3cc(F)cc(O[C@@H](C)CNC(=O)C[C@@H]4N=C(c5ccc(Cl)cc5)c5c(sc(C)c5C)-n5c(C)nnc54)c3)cn2)cc1 (some centres unmarked) [Example 208] | 92% | < 0.01 µM
Cc1ncsc1-c1ccc(CNC(=O)[C@@H]2C[C@@H](O)CN2C(=O)[C@H](c2cc(OCCC(F)(F)CCNC(=O)C[C@@H]3N=C(c4ccc(Cl)cc4)c4c(sc(C)c4C)-n4c(C)nnc43)no2)C(C)C)cc1 [Example 296, (2S,4R)-1-[(2S)-2-{3-[(5-{2-[(9S)-7-(4-chlorophenyl)-4,5,13-trimethyl-3-thia-1,8,11,12-tetraazatricyclo[8.3.0.0^2,^6]trideca-2(6),4,7,10,12-pentaen-9-yl]acetamido}-3,3-difluoropentyl)oxy]-1,2-oxazol-5-yl}-3-methylbutanoyl]-4-hydroxy-N-{[4-(4-methyl-1,3-thiazol-5-yl)phenyl]methyl}pyrrolidine-2-carboxamide] | 71.4% | 0.1 to 1 µM
Cc1ncsc1-c1ccc([C@H](C)NC(=O)[C@@H]2C[C@@H](O)CN2C(=O)[C@@H](C(C)C)n2cc(-c3ccnc(O[C@H]4C[C@H](NC(=O)C[C@@H]5N=C(c6ccc(Cl)cc6)c6c(sc(C)c6C)-n6c(C)nnc65)C4)c3)cn2)cc1 [Example 220] | 66.4% | 0.1 to 1 µM
Cc1ncsc1-c1ccc(CNC(=O)[C@@H]2C[C@@H](O)CN2C(=O)[C@@H](NC(=O)COCCOCCOCCOCCOCCNC(=O)C[C@@H]2N=C(c3ccc(Cl)cc3)c3c(sc(C)c3C)-n3c(C)nnc32)C(C)(C)C)cc1 [Example 7] | 93% | 0.1 to 1 µM
Cc1ncsc1-c1ccc([C@H](C)NC(=O)[C@H]2C[C@H](O)CN2C(=O)[C@@H](NC(=O)CN2CCC(O[C@H]3C[C@H](NC(=O)C[C@@H]4N=C(c5ccc(Cl)cc5)c5c(sc(C)c5C)-n5c(C)nnc54)C3)CC2)C(C)(C)C)cc1 [Example 345] | < 5% | > 1 µM
Cc1ncsc1-c1ccc([C@H](C)NC(=O)[C@@H]2C[C@@H](O)CN2C(=O)[C@@H](NC(=O)COCCCOCCN(C)C(=O)C[C@@H]2N=C(c3ccc(Cl)cc3)c3c(sc(C)c3C)-n3c(C)nnc32)C(C)(C)C)cc1 [Example 148] | 100% | < 0.01 µM
Cc1ncsc1-c1ccc(CNC(=O)[C@@H]2C[C@@H](O)CN2C(=O)[C@H](C(C)C)N2Cc3ccccc3C2=O)c(OCCOCCOCCCCOCCOCCNC(=O)C[C@@H]2N=C(c3ccc(Cl)cc3)c3c(sc(C)c3C)-n3c(C)nnc32)c1 [Example 6] | 100% | 0.1 to 1 µM
Cc1sc2c(c1C)C(c1ccc(Cl)cc1)=N[C@@H](CC(=O)NCCOCCCOCC(=O)N[C@H](C(=O)N1C[C@H](O)C[C@H]1C(=O)NCc1ccc(Cl)cc1)C(C)(C)C)c1nnc(C)n1-2 [Example 76] | 58.6% | 0.1 to 1 µM
Cc1ncsc1-c1ccc([C@H](C)NC(=O)[C@@H]2C[C@@H](O)CN2C(=O)[C@@H](C(C)C)n2cc(-c3cc(F)cc(O[C@H]4C[C@H](NC(=O)C[C@@H]5N=C(c6ccc(Cl)cc6)c6c(sc(C)c6C)-n6c(C)nnc65)C4)c3)cn2)cc1 [Example 253] | 33.4% | > 1 µM
Cc1ncsc1-c1ccc([C@H](C)NC(=O)[C@@H]2C[C@@H](O)CN2C(=O)[C@@H](NC(=O)/C=C/c2cc(F)cc(O[C@@H](C)CNC(=O)C[C@@H]3N=C(c4ccc(Cl)cc4)c4c(sc(C)c4C)-n4c(C)nnc43)c2)C(C)(C)C)cc1 [Example 201] | 94.1% | < 0.01 µM
Cc1ncsc1-c1ccc(CNC(=O)[C@@H]2C[C@@H](O)CN2C(=O)[C@@H](NC(=O)COCCCOc2ccc(-c3cnc(NC(=O)C[C@@H]4N=C(c5ccc(Cl)cc5)c5c(sc(C)c5C)-n5c(C)nnc54)cn3)cc2)C(C)(C)C)cc1 [Example 21, (2S,4R)-1-[(2S)-2-(2-{3-[4-(5-{2-[(9S)-7-(4-chlorophenyl)-4,5,13-trimethyl-3-thia-1,8,11,12-tetraazatricyclo[8.3.0.0^2,^6]trideca-2(6),4,7,10,12-pentaen-9-yl]acetamido}pyrazin-2-yl)phenoxy]propoxy}acetamido)-3,3-dimethylbutanoyl]-4-hydroxy-N-{[4-(4-methyl-1,3-thiazol-5-yl)phenyl]methyl}pyrrolidine-2-carboxamide] | 91% | 0.01 to 0.1 µM
Cc1ncsc1-c1ccc(CNC(=O)[C@@H]2C[C@@H](O)CN2C(=O)[C@H](c2cc(OCCCCCNC(=O)C[C@@H]3N=C(c4ccc(Cl)cc4)c4c(sc(C)c4C)-n4c(C)nnc43)no2)C(C)C)cc1 [Example 120] | 79.5% | 0.1 to 1 µM
Cc1ncsc1-c1ccc([C@H](C)NC(=O)[C@@H]2C[C@@H](O)CN2C(=O)[C@@H](NC(=O)c2ccc(OCCCNC(=O)C[C@@H]3N=C(c4ccc(Cl)cc4)c4c(sc(C)c4C)-n4c(C)nnc43)cc2)C(C)(C)C)cc1 [Example 132, (2S,4R)-1-[(2S)-2-{[4-(3-{2-[(9S)-7-(4-chlorophenyl)-4,5,13-trimethyl-3-thia-1,8,11,12-tetraazatricyclo[8.3.0.0^2,^6]trideca-2(6),4,7,10,12-pentaen-9-yl]acetamido}propoxy)phenyl]formamido}-3,3-dimethylbutanoyl]-4-hydroxy-N-[(1S)-1-[4-(4-methyl-1,3-thiazol-5-yl)phenyl]ethyl]pyrrolidine-2-carboxamide] | 99% | < 0.01 µM
Cc1ncsc1-c1ccc(CNC(=O)[C@@H]2C[C@@H](O)CC2C(=O)[C@@H](NC(=O)CO[C@H]2CCN(c3ccc([C@@H](C)NC(=O)C[C@@H]4N=C(c5ccc(Cl)cc5)c5c(sc(C)c5C)-n5c(C)nnc54)cc3)C2)C(C)(C)C)cc1 (some centres unmarked) [Example 66] | 89.4% | 0.01 to 0.1 µM
Cc1sc2c(c1C)C(c1ccc(Cl)cc1)=N[C@@H](CC(=O)N[C@H]1C[C@H](Oc3ccc(CC(=O)N[C@H](C(=O)N4C[C@H](O)C[C@H]4C(=O)N[C@H](C)c4ccc(S(C)(=O)=O)cc4)C(C)(C)C)cc3)C1)c1nnc(C)n1-2 [Example 308] | 21% | > 1 µM
Cc1ncsc1-c1ccc([C@H](C)NC(=O)[C@@H]2C[C@@H](O)CN2C(=O)[C@@H](NC(=O)/C=C/c2ccc(F)c(O[C@H](C)CNC(=O)C[C@@H]3N=C(c4ccc(Cl)cc4)c4c(sc(C)c4C)-n4c(C)nnc43)c2)C(C)(C)C)cc1 [Example 161] | 97% | < 0.01 µM
Cc1ncsc1-c1ccc([C@H](C)NC(=O)[C@@H]2C[C@@H](O)CN2C(=O)[C@@H](NC(=O)/C=C/c2cccc(O[C@H](C)CNC(=O)C[C@@H]3N=C(c4ccc(Cl)cc4)c4c(sc(C)c4C)-n4c(C)nnc43)c2)C(C)(C)C)cc1 [Example 159] | 96.5% | < 0.01 µM
Cc1ncsc1-c1ccc(CNC(=O)[C@@H]2C[C@@H](O)CN2C(=O)[C@@H](NC(=O)c2cn3ccc(OCCCNC(=O)C[C@@H]4N=C(c5ccc(Cl)cc5)c5c(sc(C)c5C)-n5c(C)nnc54)cc3n2)C(C)(C)C)cc1 [Example 99] | 67% | 0.1 to 1 µM
Cc1ncsc1-c1ccc([C@H](C)NC(=O)[C@@H]2C[C@@H](O)CN2C(=O)[C@@H](NC(=O)C[C@@H]2N=C(c3ccc(Cl)cc3)c3c(sc(C)c3C)-n3c(C)nnc32)C(C)(C)C)cc1 [Example 349] | 22% | > 1 µM
